Reference: PubChem BioAssay AID720660 (The Scripps Research Institute Molecular Screening Center, 2013)
The source made the active and inactive calls.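 Rule for the calls: active = EC50 of 10 µM or lower, the dose giving half of maximal activation; inactive = the rest.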

test system: MG132 cells, BRM-dependent luciferase reporter, 24 h; test: dose-dependent BRM function restoration – cell-based, luminescence, dose response, late-stage follow-up (AID 720660)

EC50, inactive:
COc1ccc(-c2nc(C#N)c(NC3CC3)o2)cc1 > 91.2 µM
Clc1ccc(Cc2nc(-c3ccccc3)cs2)cc1 > 91.2 µM
Oc1ccccc1OCc1nc2ccccc2s1 > 91.2 µM
Cc1nc(NC(=O)c2cccc(Br)c2)sc1C > 91.2 µM
Cc1cc(C)c2nc(NC(=O)C(C)C)sc2c1 > 91.2 µM
Cc1ccc(Nc2nc(-c3ccccc3)c(C)s2)cc1 > 91.2 µM
O=C(NCC1(c2nc(-c3ccccc3)cs2)CCOCC1)c1cccc(-c2noc(C(F)(F)F)n2)c1 > 91.2 µM
